In paper PMC8621570, “Mechanistic Studies of Antibiotic Adjuvants Reducing Kidney’s Bacterial Loads upon Systemic Monotherapy” (Pharmaceutics, 2021):

Tested on: E. coli 25922
Format: cell-based, Escherichia coli
Settings: 25922, 24 h
Experimental: Sensitization to plasma components was assessed by mixing bacteria with serial two-fold OAC dilutions in 80% human plasma (Israel Blood Bank) or plasma from the specified species (Technion preclinical research authority or VetSource), as described. Data were obtained from three independent experiments.
Figure 3 Animal plasma antibacterial activities against E. coli 25922. (a) Dose-dependent reduction of colony forming units (CFU) as determined 24 h after exposure to C14(ω5)OOc10O in human plasma (80% final plasma concentration in PBS). Values represent the mean ± SD obtained from three individual plasma donors (mean inoculum was 1.6 ± 0.8 × 10^6 CFU/mL). (b) Time-kill kinetics determined upon E. coli exposure to 0, 2.5, 5, and 10 µM C14(ω5)OOc10O (from top to bottom, respectively). Values represent the mean ± SD obtained from two individual plasma samples, each subjected to two independent assays. Panels (c–f), respectively, show the OAC’s concentration-dependent activities in plasma samples obtained from pig, cat, sheep, and dog. The three dashed horizontal lines respectively represent the average CFU count of the vehicle control (upper line), the inoculum (middle line), and the limit of detection (lower line), i.e., log10 50 CFU/mL = 1.69. Green stars (*) denote lack of detectable CFU.

SMILES: CCCCC=CCCCCCCCC(=O)N[C@@H](CCCN)C(=O)N[C@@H](CCCN)C(=O)NCCCCCCCCCC(=O)N[C@@H](CCCN)C(N)=O [C14(ω5)OOc10O]
- MIC, cat plasma: ≥ 20 µM
- MIC, dog plasma: ≥ 20 µM
- MIC, human plasma: 2.5 to 5 µM
